Reference: publication PMC8556396, “Statin-mediated disruption of Rho GTPase prenylation and activity inhibits respiratory syncytial virus infection” (Communications Biology, 2021)
Where a name gives a salt, the structure may show the parent alone.

Test system: RSV-GFP
Assay: microbe, parasite or virus in culture
Format: cell-based, Respiratory syncytial virus
Details: for inhibition at 10 µM: human respiratory syncytial virus, HEp-2, read-out: RSV-GFP inhibition (%); for RSV-GFP inhibition (%): 10.0 µM, HEp-2, RSV-GFP MOI 0.5, single replicate; for RSV inhibition in the screen: HEp-2, RSV-GFP
Experimental: The following morning, cells were washed twice with serum-free EMEM and treated with RSV-GFP (MOI 0.5) in a minimal volume of serum-free media for 90 min under frequent agitation. Unbound virus was then removed and replaced with fresh serum-containing EMEM. All drug additions were performed 2 h post-viral exposure, unless otherwise stated.
Automated quantification of infection rates from fluorescent images were performed in CellProfiler (v2.2.0)[86]. Major steps in the image analysis pipeline included: (1) background subtraction and smoothing, (2) segmentation of nuclei, (3) segmentation of GFP-fluorescent area, (4) object masking, and (5) measurement of nuclear number, size, and intensity. Infection rate was quantified from the ratio of nuclei within GFP-fluorescent area to the total number of nuclei (Fig. 1b). This method of analysis accounts for in vitro syncytium formation induced by RSV, whereby a single infected cell may arise from the fusion of multiple cells. Mean nuclear fluorescent intensity and size was quantified as a measure of cell viability.
The MicroSource […] Collection (Discovery Systems Inc.) consisting of 2400 compounds was screened using the previously outlined RSV-GFP infection assay protocol. Robot-assisted addition of drugs was performed within 1 h of RSV-GFP infection and infection rates were assayed 48 h p.i. Drugs were provided as 10 mM stocks in DMSO and serial diluted to a final concentration of 10 µM, resulting in a final DMSO concentration of 0.1% v/v. […] Hits were selected based on the criteria that: (a) the tested drug caused a >50% reduction in infection rate and (b) was not overtly cytotoxic (<10% change in mean nuclear intensity relative to DMSO control). Z-factors were calculated on a per-plate basis to monitor assay quality.

Molecule | inhibition at 10 µM [%] | also measured
Nc1c2ccccc2nc2ccccc12 [Aminacrine] | 58.3 | –
Oc1c(Cl)cc(Cl)c(Cl)c1Cc1c(O)c(Cl)cc(Cl)c1Cl [Hexachlorophene] | 83.2 | –
CC1=C2C[C@H]3[C@@H](CC=C4C[C@@H](O)CC[C@@]43C)[C@@H]2CC[C@]12O[C@@H]1C[C@H](C)CN[C@H]1[C@H]2C [Cyclopamine] | 86 | –
CC(=O)OC1CCC23C(=O)OC45CCC(C6=CC(=O)OC6)C4(C)CCC2C5CCC3(O)C1 (centres unmarked) [Strophanthidinic acid lactone acetate] | – | RSV-GFP inhibition (%): 82.33%
CC1(C)C(=O)C=C[C@]2(C)[C@H]3CC[C@@]4(C)[C@H](c5ccoc5)OC(=O)[C@H]5O[C@]54[C@]3(C)C=C[C@@H]12 [7-Desacetoxy-6,7-dehydrogedunin] | – | RSV-GFP inhibition (%): 69.38%
C#C[C@]1(O)CC[C@H]2[C@@H]3CCC4=C(CCC(=O)C4)[C@H]3CC[C@@]21C [Norethynodrel] | 75.4 | –
COc1c(C)c2c(c(O)c1C/C=C(\C)CCC(=O)OCCN1CCOCC1)C(=O)OC2 [Mycophenolate mofetil] | 98.4 | –
O=C1[O][Pt]2([NH][C@@H]3CCCC[C@H]3[NH]2)[O]C1=O [Oxaliplatin] | – | RSV-GFP inhibition (%): 88.7%
CCCCCCCCCCCCCCCC[N+](C)(C)C [Cetrimonium bromide] | 71.2 | –
CC(=O)Oc1cc2c(c(C)c1OC(C)=O)CC=C1[C@@]2(C)CC[C@@]2(C)C3C[C@](C)(C(=O)O)CC[C@]3(C)CC[C@]12C (some centres unmarked) [Dihydrocelastryl diacetate] | – | RSV-GFP inhibition (%): 89.96%
Benzalkonium chloride | – | RSV-GFP inhibition (%): 77.34%
O=C(O)C[C@H](O)C[C@H](O)/C=C/c1c(C2CC2)nc2ccccc2c1-c1ccc(F)cc1 [Pitavastatin calcium] | 63.4 | RSV inhibition in the screen: inhibit RSV at low micromolar concentrations
CO[C@H]1[C@H](O)[C@H](O[C@H]2CC[C@@]3(C=O)[C@H](CC[C@@H]4[C@@H]3CC[C@]3(C)[C@@H](C5=CC(=O)OC5)CC[C@]43O)C2)O[C@@H](C)[C@@H]1O [Peruvoside] | 98.2 | –
COc1cc2c(cc1OC)[C@@H]1C(=O)c3c(O)cc4c(c3O[C@@H]1CO2)C=CC(C)(C)O4 [Alpha-toxicarol] | – | RSV-GFP inhibition (%): 63.58%
CC(=O)O[C@H]1C[C@H](O[C@H]2[C@@H](O)C[C@H](O[C@H]3[C@@H](O)C[C@H](O[C@H]4CC[C@@]5(C)[C@H](CC[C@@H]6[C@@H]5C[C@@H](O)[C@]5(C)[C@@H](C7=CC(=O)OC7)CC[C@]65O)C4)O[C@@H]3C)O[C@@H]2C)O[C@H](C)[C@H]1O[C@@H]1O[C@H](CO)[C@@H](O)[C@H](O)[C@H]1O [Lanatoside C] | 100 | –
CCCCCCCCCc1ccc(OCCOCCOCCOCCOCCOCCOCCOCCOCCO)cc1 [Nonoxynol-9] | 69.2 | –
COc1ccc(-c2cc(=O)c3ccccc3o2)cc1 [4’-Methoxyflavone] | 59.9 | –
CC(C)n1c(/C=C/C(O)CC(O)CC(=O)O)c(-c2ccc(F)cc2)c2ccccc21 (centres unmarked) [Fluvastatin] | 73.2 | RSV inhibition in the screen: inhibit RSV at low micromolar concentrations
CCC(=O)O[C@H]1CC[C@H]2[C@@H]3CCC4=CC(=O)CC[C@]4(C)[C@H]3CC[C@]12C [Testosterone propionate] | 84.7 | –
N=C(N)c1ccc(OCCCCCOc2ccc(C(=N)N)cc2)cc1 [Pentamidine isethionate] | 60.2 | –
C[C@]12CC[C@H]3[C@@H](CC[C@]4(O)C[C@@H](O)CC[C@]34C=O)[C@@]1(O)CC[C@@H]2C1=CC(=O)OC1 [Strophanthidin] | 90.4 | –
COc1c(C)c2c(c(O)c1C/C=C(\C)CCC(=O)O)C(=O)OC2 [Mycophenolic acid] | 98.8 | –
Cc1cc(N)c2ccccc2[n+]1CCCCCCCCCC[n+]1c(C)cc(N)c2ccccc21 [Dequalinium chloride] | 63.8 | –
C[C@@H]1O[C@@H](O[C@@H]2C=C3CC[C@@H]4[C@H](CC[C@]5(C)[C@@H](c6ccc(=O)oc6)CC[C@]45O)[C@@]3(C)CC2)[C@H](O)[C@H](O)[C@H]1O [Proscillaridin] | 81.6 | –

Molecule | inhibition at 10 µM [%] | also measured
O=c1cc(-c2ccc(O)cc2)oc2ccc(O)cc12 [6,4’-Dihydroxyflavone] | 75.3 | –
CN(C)c1ccc2nc3ccc(=[N+](C)C)cc-3sc2c1 [Methylene blue] | 67.8 | –
CCc1c2c(nc3ccc(OC(=O)N4CCC(N5CCCCC5)CC4)cc13)-c1cc3c(c(=O)n1C2)COC(=O)[C@]3(O)CC.Cl [Irinotecan hydrochloride] | – | RSV-GFP inhibition (%): 55.56%
Antimycin A1 | – | RSV-GFP inhibition (%): 79.49%
CC[C@@]1(O)C(=O)OCc2c1cc1n(c2=O)Cc2cc3ccccc3nc2-1 [Camptothecin] | 55.7 | –
C=C[C@@]1(C)CC(=O)[C@]2(O)[C@@]3(C)[C@@H](O)CCC(C)(C)[C@@H]3[C@H](O)[C@H](OC(C)=O)[C@@]2(C)O1 [Colforsin] | 72.5 | –
CC[C@H]1CN2CCc3cc(OC)c(OC)cc3[C@@H]2C[C@@H]1C[C@H]1NCCc2cc(OC)c(OC)cc21 [Emetine dihydrochloride] | 100 | –
C#CC1(O)CC[C@H]2[C@@H]3CCC4=CC(=O)CC[C@@H]4[C@H]3CC[C@@]21CC (mixture of isomers) [Norgestrel] | 64.1 | –
CC[C@@]1([C@@H]2O[C@@H]([C@H]3O[C@@](O)(CO)[C@H](C)C[C@@H]3C)C[C@@H]2C)CC[C@H]([C@]2(C)CC[C@]3(C[C@H](O)[C@@H](C)[C@@H]([C@@H](C)[C@@H](OC)[C@H](C)C(=O)O)O3)O2)O1 [Monensin A] | 93.9 | –
CCCCC(CC)CNC(=N)NC(=N)NCCCCCCNC(=N)NC(=N)NCC(CC)CCCC (centres unmarked) [Alexidine hydrochloride] | 66.8 | –
C[C@]12CC[C@H](O)C[C@H]1CC[C@@H]1[C@@H]2C[C@@H](O)[C@]2(C)[C@@H](C3=CC(=O)OC3)CC[C@]12O [Digoxigenin] | 85.1 | –
Cc1c(O)c(O)cc2c1CC=C1[C@@]2(C)CC[C@@]2(C)[C@@H]3C[C@](C)(C(=O)O)CC[C@]3(C)CC[C@]12C [Dihydrocelastrol] | 82.6 | –
CN(C)c1ccc(C(=C2C=CC(=[N+](C)C)C=C2)c2ccc(N(C)C)cc2)cc1 [Gentian violet] | 86.3 | –
CC(=O)O[C@H]1CC[C@@]2(C)[C@H](CC[C@@H]3[C@@H]2CC[C@]2(C)[C@@H](C4=CC(=O)OC4)[C@@H](OC(C)=O)C[C@]32O)C1 [Gitoxigenin diacetate] | 91.8 | –
Cc1nc2ccccc2n1Cc1ccc(Cl)cc1 [Chlormidazole] | 68.5 | –
C#C[C@]1(OC(C)=O)CC[C@H]2[C@@H]3CCC4=CC(=NO)CC[C@@H]4[C@H]3CC[C@@]21CC (mixture of isomers) [Norgestimate] | 55 | –
C[C@@H]1C[C@@H]([C@H](O)CC2CC(=O)NC(=O)C2)C(=O)[C@@H](C)C1 [Cycloheximide] | 75 | –
C#C[C@]1(OC(C)=O)CC[C@H]2[C@@H]3CCC4=CC(=O)CC[C@@H]4[C@H]3CC[C@@]21C [Norethindrone acetate] | 54.2 | –
C[C@H]1O[C@@H](O[C@H]2[C@@H](O)C[C@H](O[C@H]3[C@@H](O)C[C@H](O[C@H]4CC[C@@]5(C)[C@H](CC[C@@H]6[C@@H]5CC[C@]5(C)[C@@H](C7=CC(=O)OC7)[C@@H](O)C[C@]65O)C4)O[C@@H]3C)O[C@@H]2C)C[C@H](O)[C@@H]1O [Gitoxin] | 85.7 | –
C[C@@H]1O[C@@H](O[C@H]2C[C@@H](O)[C@]3(CO)[C@H]4[C@H](O)C[C@]5(C)[C@@H](C6=CC(=O)OC6)CC[C@]5(O)[C@@H]4CC[C@]3(O)C2)[C@H](O)[C@H](O)[C@H]1O [Ouabain] | 100 | –
CC(=O)[C@H]1CC[C@H]2[C@@H]3CCC4=CC(=O)CC[C@]4(C)[C@H]3CC[C@]12C [Progesterone] | 50.5 | –
C[C@]12CCC(=O)C=C1[C@@H]1C[C@@H]1[C@H]1[C@@H]3[C@@H]4C[C@@H]4[C@@]4(CCC(=O)O4)[C@@]3(C)CC[C@@H]12 [Drospirenone] | 68.3 | –
COC(=O)[C@]1(C)CC[C@]2(C)CC[C@]3(C)C4=CC=C5C(=CC(=O)C(O)=C5C)[C@]4(C)CC[C@@]3(C)[C@@H]2C1 [Pristimerin] | 74.1 | –
CC[C@@H](C(=O)[C@@H](C)[C@@H](O)[C@H](C)[C@@H]1O[C@@H]([C@@H](CC)C(=O)O)CC[C@@H]1C)[C@H]1O[C@]2(C=C[C@@H](O)[C@]3(CC[C@@](C)([C@H]4CC[C@](O)(CC)[C@H](C)O4)O3)O2)[C@H](C)C[C@@H]1C [Salinomycin, sodium] | – | RSV-GFP inhibition (%): 96.45%
